# Test system: 276233-004-R-J1-PDC complex spheroid viability
# Experiment: Anticancer human tumor 276233-004-R-J1-PDC patient-derived colon adenocarcinoma cell line growth inhibition [GQUAD]
# Settings: for IC50: curve of first compound; for viability, T/C: stronger effect = lower value
# Procedure, shortened: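 Multi-cell-type spheroids of tumor cells with HUVEC and mesenchymal stem cells, treated with drug combinations. Concentrations descend in half-log steps from near clinical Cmax, or from 10 microM where Cmax is unknown; viability read-out.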
# [1] = second compound 0.0316 µM, first compound 0.0316 µM
# [2] = second compound 0.0316 µM, first compound 0.1 µM
# [3] = second compound 0.0316 µM, first compound 0.316 µM
# [4] = second compound 0.0316 µM, first compound 1 µM
# [5] = second compound 0.0316 µM, first compound 3.16 µM
# [6] = second compound 0.0316 µM, first compound 10 µM
# [7] = second compound 0.1 µM, first compound 0.0316 µM
# [8] = second compound 0.1 µM, first compound 0.1 µM
# [9] = second compound 0.1 µM, first compound 0.316 µM
# [10] = second compound 0.1 µM, first compound 1 µM
# [11] = second compound 0.1 µM, first compound 3.16 µM
# [12] = second compound 0.1 µM, first compound 10 µM
# [13] = second compound 0.316 µM, first compound 0.0316 µM
# [14] = second compound 0.316 µM, first compound 0.1 µM
# [15] = second compound 0.316 µM, first compound 0.316 µM
# [16] = second compound 0.316 µM, first compound 1 µM
# [17] = second compound 0.316 µM, first compound 3.16 µM
# [18] = second compound 0.316 µM, first compound 10 µM
# [19] = second compound 1 µM, first compound 0.0316 µM
# [20] = second compound 1 µM, first compound 0.1 µM
# [21] = second compound 1 µM, first compound 0.316 µM
# [22] = second compound 1 µM, first compound 1 µM
# [23] = second compound 1 µM, first compound 3.16 µM
# [24] = second compound 1 µM, first compound 10 µM
# [25] = second compound 3.16 µM, first compound 0.0316 µM
# [26] = second compound 3.16 µM, first compound 0.1 µM
# [27] = second compound 3.16 µM, first compound 0.316 µM
# [28] = second compound 3.16 µM, first compound 1 µM
# [29] = second compound 3.16 µM, first compound 3.16 µM
# [30] = second compound 3.16 µM, first compound 10 µM
# [31] = second compound 10 µM, first compound 0.0316 µM
# [32] = second compound 10 µM, first compound 0.1 µM
# [33] = second compound 10 µM, first compound 0.316 µM
# [34] = second compound 10 µM, first compound 1 µM
# [35] = second compound 10 µM, first compound 3.16 µM
# [36] = second compound 10 µM, first compound 10 µM
# 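Also: spheroids exposed to drugs for seven days.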
# 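For viability, T/C in this document: 100% = DMSO vehicle control viability.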
smiles,measurement,setting,value
CC(C)n1c(=O)n(C)c2cnc3cc(F)c(-c4ccc(OCCCN5CCCCC5)nc4)cc3c21 + Cc1cnc(CNC(=O)c2c(=O)c3ccc(N4CCCN(C)CC4)nc3n3c2sc2ccccc23)cn1,IC50,second compound 0.0316 µM,> 10 µM
same,IC50,second compound 0.1 µM,> 10 µM
same,IC50,second compound 0.316 µM,> 10 µM
same,IC50,second compound 1 µM,> 10 µM
same,IC50,second compound 3.16 µM,> 10 µM
same,IC50,second compound 10 µM,> 10 µM
same,"viability, T/C",[1],81.3%
same,"viability, T/C",[2],71.9%
same,"viability, T/C",[3],82.5%
same,"viability, T/C",[4],89.4%
same,"viability, T/C",[5],79.3%
same,"viability, T/C",[6],79.2%
same,"viability, T/C",[7],79%
same,"viability, T/C",[8],83.4%
same,"viability, T/C",[9],76.8%
same,"viability, T/C",[10],78.9%
same,"viability, T/C",[11],96.5%
same,"viability, T/C",[12],86.4%
same,"viability, T/C",[13],85.9%
same,"viability, T/C",[14],96.7%
same,"viability, T/C",[15],82.1%
same,"viability, T/C",[16],78.2%
same,"viability, T/C",[17],85.2%
same,"viability, T/C",[18],81.9%
same,"viability, T/C",[19],69.9%
same,"viability, T/C",[20],64.9%
same,"viability, T/C",[21],89.3%
same,"viability, T/C",[22],81.6%
same,"viability, T/C",[23],85%
same,"viability, T/C",[24],69.7%
same,"viability, T/C",[25],80.4%
same,"viability, T/C",[26],78%
same,"viability, T/C",[27],79.3%
same,"viability, T/C",[28],71.9%
same,"viability, T/C",[29],75%
same,"viability, T/C",[30],76.7%
same,"viability, T/C",[31],74.3%
same,"viability, T/C",[32],66.7%
same,"viability, T/C",[33],66.8%
same,"viability, T/C",[34],69.2%
same,"viability, T/C",[35],80.8%
same,"viability, T/C",[36],66.3%
CC1COCCN1c1cc(C2(S(C)(=N)=O)CC2)nc(-c2ccnc3[nH]ccc23)n1 (stereo not drawn) + Cc1[nH]c2ccc(F)cc2c1-c1nc2c3cccnc3c3ncccc3c2[nH]1,IC50,second compound 0.0316 µM,> 10 µM
same,IC50,second compound 0.1 µM,> 10 µM
same,IC50,second compound 0.316 µM,> 10 µM
same,IC50,second compound 1 µM,> 10 µM
same,IC50,second compound 3.16 µM,7.86 µM
same,IC50,second compound 10 µM,0.424 µM
same,"viability, T/C",[1],96.4%
same,"viability, T/C",[2],83%
same,"viability, T/C",[3],110%
same,"viability, T/C",[4],89.6%
same,"viability, T/C",[5],87.1%
same,"viability, T/C",[6],67.3%
same,"viability, T/C",[7],76.6%
same,"viability, T/C",[8],101%
same,"viability, T/C",[9],85.8%
same,"viability, T/C",[10],90.1%
same,"viability, T/C",[11],75%
same,"viability, T/C",[12],74.1%
same,"viability, T/C",[13],97.3%
same,"viability, T/C",[14],79.8%
same,"viability, T/C",[15],97.7%
same,"viability, T/C",[16],70.1%
same,"viability, T/C",[17],74.6%
same,"viability, T/C",[18],63.6%
same,"viability, T/C",[19],80.3%
same,"viability, T/C",[20],79%
same,"viability, T/C",[21],85.4%
same,"viability, T/C",[22],76.1%
same,"viability, T/C",[23],64.3%
same,"viability, T/C",[24],57.4%
same,"viability, T/C",[25],56.2%
same,"viability, T/C",[26],58.6%
same,"viability, T/C",[27],55.9%
same,"viability, T/C",[28],50.1%
same,"viability, T/C",[29],53.6%
same,"viability, T/C",[30],48.7%
same,"viability, T/C",[31],47.9%
same,"viability, T/C",[32],49.5%
same,"viability, T/C",[33],47.5%
same,"viability, T/C",[34],58.2%
same,"viability, T/C",[35],44%
same,"viability, T/C",[36],36.3%
COc1cccc2c1C(=O)c1c(O)c3c(c(O)c1C2=O)CC(O)(C(=O)CO)CC3OC1CC(N)C(O)C(C)O1 (stereo not drawn) + Cc1cnc(CNC(=O)c2c(=O)c3ccc(N4CCCN(C)CC4)nc3n3c2sc2ccccc23)cn1,IC50,second compound 0.0316 µM,9.69 µM
same,IC50,second compound 0.1 µM,6.82 µM
same,IC50,second compound 0.316 µM,3.53 µM
same,IC50,second compound 1 µM,2.33 µM
same,IC50,second compound 3.16 µM,2.16 µM
same,IC50,second compound 10 µM,2.03 µM
same,"viability, T/C",[1],81.5%
same,"viability, T/C",[2],87.3%
same,"viability, T/C",[3],86%
same,"viability, T/C",[4],67.1%
same,"viability, T/C",[5],79.6%
same,"viability, T/C",[6],48.6%
same,"viability, T/C",[7],79%
same,"viability, T/C",[8],94.9%
same,"viability, T/C",[9],72.2%
same,"viability, T/C",[10],87.9%
same,"viability, T/C",[11],66.3%
same,"viability, T/C",[12],41.9%
same,"viability, T/C",[13],80.4%
same,"viability, T/C",[14],92.3%
same,"viability, T/C",[15],87.2%
same,"viability, T/C",[16],78.3%
same,"viability, T/C",[17],51.8%
same,"viability, T/C",[18],35%
same,"viability, T/C",[19],78%
same,"viability, T/C",[20],95.8%
same,"viability, T/C",[21],83.1%
same,"viability, T/C",[22],73%
same,"viability, T/C",[23],41.8%
same,"viability, T/C",[24],24.4%
same,"viability, T/C",[25],78.1%
same,"viability, T/C",[26],78.8%
same,"viability, T/C",[27],77.4%
same,"viability, T/C",[28],60.4%
same,"viability, T/C",[29],44.5%
same,"viability, T/C",[30],13%
same,"viability, T/C",[31],73.2%
same,"viability, T/C",[32],60.6%
same,"viability, T/C",[33],64.5%
same,"viability, T/C",[34],69%
same,"viability, T/C",[35],39.4%
same,"viability, T/C",[36],13.5%
O=C(c1cc(Cc2n[nH]c(=O)c3ccccc23)ccc1F)N1CCN(C(=O)C2CC2)CC1 + Cc1cnc(CNC(=O)c2c(=O)c3ccc(N4CCCN(C)CC4)nc3n3c2sc2ccccc23)cn1,IC50,second compound 0.0316 µM,> 10 µM
same,IC50,second compound 0.1 µM,> 10 µM
same,IC50,second compound 0.316 µM,> 10 µM
same,IC50,second compound 1 µM,> 10 µM
same,IC50,second compound 3.16 µM,> 10 µM
same,IC50,second compound 10 µM,> 10 µM
same,"viability, T/C",[1],80.1%
same,"viability, T/C",[2],85%
same,"viability, T/C",[3],89.3%
same,"viability, T/C",[4],79.3%
same,"viability, T/C",[5],90.8%
same,"viability, T/C",[6],91.6%
same,"viability, T/C",[7],81.1%
same,"viability, T/C",[8],92.8%
same,"viability, T/C",[9],82.2%
same,"viability, T/C",[10],83.8%
same,"viability, T/C",[11],85.5%
same,"viability, T/C",[12],83%
same,"viability, T/C",[13],96%
same,"viability, T/C",[14],91.4%
same,"viability, T/C",[15],83.4%
same,"viability, T/C",[16],81.8%
same,"viability, T/C",[17],96.7%
same,"viability, T/C",[18],73.5%
same,"viability, T/C",[19],69.9%
same,"viability, T/C",[20],77.1%
same,"viability, T/C",[21],91.2%
same,"viability, T/C",[22],75.5%
same,"viability, T/C",[23],83.8%
same,"viability, T/C",[24],67.3%
same,"viability, T/C",[25],76.9%
same,"viability, T/C",[26],70%
same,"viability, T/C",[27],61.1%
same,"viability, T/C",[28],68.4%
same,"viability, T/C",[29],77.2%
same,"viability, T/C",[30],72.7%
same,"viability, T/C",[31],74.5%
same,"viability, T/C",[32],68.1%
same,"viability, T/C",[33],80.2%
same,"viability, T/C",[34],62.5%
same,"viability, T/C",[35],77.8%
same,"viability, T/C",[36],53.2%

# From PubChem BioAssay AID2060496 (Molecular Pharmacology Branch, DTP, NCI, 2025)
